Experimental data: ChEMBL document CHEMBL3769347, “Discovery of high affinity inhibitors of Leishmania donovani N-myristoyltransferase” (Medchemcomm, 2015)
pKi: −log10 of the molar value.

Assays:
[1] = Cytotoxicity in BALB/c mouse BMDM cells after 72 hrs by Alamar Blue assay; type: cell-based; conditions: bone marrow-derived macrophages (BMDM cells), read-out: LD50
[2] = biological target: T1, Glycylpeptide N-tetradecanoyltransferase (Plasmodium falciparum (isolate 3D7), UniProt Q8ILW6); assay: Binding affinity to Plasmodium falciparum N-myristoyltransferase by fluorescence analysis
T1 sequence (Q8ILW6 whole entry): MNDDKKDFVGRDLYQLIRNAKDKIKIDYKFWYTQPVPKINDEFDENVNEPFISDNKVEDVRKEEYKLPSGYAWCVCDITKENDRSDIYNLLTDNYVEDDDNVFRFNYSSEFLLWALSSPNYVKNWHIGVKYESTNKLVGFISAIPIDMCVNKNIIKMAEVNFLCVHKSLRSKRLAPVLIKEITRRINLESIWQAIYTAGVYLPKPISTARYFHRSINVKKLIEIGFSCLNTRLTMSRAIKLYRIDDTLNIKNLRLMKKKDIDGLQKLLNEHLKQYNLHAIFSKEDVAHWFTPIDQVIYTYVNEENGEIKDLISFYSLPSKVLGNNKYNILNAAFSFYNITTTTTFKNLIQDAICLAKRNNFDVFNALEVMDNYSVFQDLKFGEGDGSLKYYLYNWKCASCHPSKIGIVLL

SMILES: COc1cccc(Cc2noc(-c3cc(Cl)ccc3OC3CCNCC3)n2)c1
- CC50 at 72 h [1]: 18 µM

SMILES: COc1cccc(COC(=O)c2sccc2OC2CCNCC2)c1
- pKi [2]: < 4.00

SMILES: COc1cccc(Cc2noc(-c3ccc(F)cc3OC3CCNCC3)n2)c1
- CC50 at 72 h [1]: 29.5 µM

SMILES: Cc1nn(C)c(C)c1Cc1nnc(-c2cc(Cl)ccc2OC2CCNCC2)o1
- CC50 at 72 h [1]: > 90 µM

SMILES: COc1cccc(Cc2noc(-c3cc(OC)ccc3OC3CCNCC3)n2)c1
- CC50 at 72 h [1]: 27.9 µM
